Literature values in US10919891B2, “Heterocyclic compound” (TAKEDA PHARMACEUTICAL COMPANY LIMITED, priority 2017, dated 2021).

Columns and labels:
[1] = test system: hypoxia-induced pulmonary hypertension (HPH) mice; conditions: cited from earlier work
[2] = test system: monocrotaline (MCT)-induced pulmonary hypertension rats; conditions: cited from earlier work

CC(C)(Cc1ccc2ccccc2c1)NC[C@@H](O)COc1cccc(Cl)c1C#N [NPS-2143]
cardiac hypertrophy, elevated right ventricular systolic pressure, fibrosis of cardiac muscle tissue, pulmonary vascular remodeling [1]: suppressed | cardiac hypertrophy, elevated right ventricular systolic pressure, fibrosis of cardiac muscle tissue, pulmonary vascular remodeling [2]: suppressed
